Measured values as given in US9284333B2, “Fused pyrroledicarboxamides and their use as pharmaceuticals” (SANOFI, priority 2012, dated 2016).

Biological target: Human TASK-1 channels (Homo sapiens (Human), UniProt O14649)
Experiment: Determination of the activity on the TASK-1 channel in Xenopus oocytes (two-microelectrode voltage clamp)
Assay type: cell-based
Details: compound concentration 5 μM
Method in brief: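 Current during 500 ms pulses to 40 mV from a −90 mV hold was recorded in oocytes expressing human TASK-1 for two days after cRNA injection. Compounds were added cumulatively to the ND96 bath (pH 7.4, room temperature). IC50 came from dose-response fitting of inhibition relative to pre-compound current.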

Chain of Human TASK-1 channels (O14649 whole entry): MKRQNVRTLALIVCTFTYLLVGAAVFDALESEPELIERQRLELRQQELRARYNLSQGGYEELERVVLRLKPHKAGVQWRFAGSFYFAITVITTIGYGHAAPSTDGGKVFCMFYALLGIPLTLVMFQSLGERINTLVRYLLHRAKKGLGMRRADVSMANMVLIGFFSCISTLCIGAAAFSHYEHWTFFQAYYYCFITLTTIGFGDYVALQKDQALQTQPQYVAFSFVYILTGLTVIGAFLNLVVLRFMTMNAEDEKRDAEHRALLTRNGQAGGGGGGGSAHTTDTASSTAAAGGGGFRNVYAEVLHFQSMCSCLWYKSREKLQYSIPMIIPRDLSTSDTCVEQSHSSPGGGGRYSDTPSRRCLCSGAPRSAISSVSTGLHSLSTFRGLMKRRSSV

SMILES	inhibition at 5 µM [%]
C[C@H]1CCCN1C(=O)c1cc(C(=O)NCc2ccccc2Cl)c2n1CCOC2 [16an, 6-((S)-2-Methyl-pyrrolidine-1-carbonyl)-3,4-dihydro-1H-pyrrolo[2,1-c][1,4]oxazine-8-carboxylic acid 2-chloro-benzylamide]	81
CC[C@@H](NC(=O)c1cc(C(=O)N2CCC[C@@H]2C)n2c1COCC2)c1ncccc1OC [16ao, 6-((S)-2-Methyl-pyrrolidine-1-carbonyl)-3,4-dihydro-1H-pyrrolo[2,1-c][1,4]oxazine-8-carboxylic acid [(R)-1-(3-methoxy-pyridin-2-yl)-propyl]-amide]	83
CC[C@H](NC(=O)c1cc(C(=O)N2CCC[C@@H]2C)n2c1COCC2)c1ccc(F)c(C(F)(F)F)c1 [16bp]	90
CC(c1ncccn1)N(CC1CC1)C(=O)c1cc(C(=O)N[C@H](C)c2ccc(F)cc2)n2c1COCC2 (stereo partly drawn) [16ea, 3,4-Dihydro-1H-pyrrolo[2,1-c][1,4]oxazine-6,8-dicarboxylic acid 8-[cyclopropylmethyl-(1-pyrimidin-2-yl-ethyl)-amide] 6-{[(R)-1-(4-fluoro-phenyl)-ethyl]-amide}]	72

Same assay, conditions: human TASK-1 expressed in Xenopus oocytes, room temperature; read-out: IC50 value for TASK-1 inhibition

SMILES	IC50 [nM]
CC[C@@H](NC(=O)c1cc(C(=O)N2CC[C@H](OC)C2)n2c1COCC2)c1ccc(F)cc1Cl [16nn, 6-((S)-3-Methoxy-pyrrolidine-1-carbonyl)-3,4-dihydro-1H-pyrrolo[2,1-c][1,4]oxazine-8-carboxylic acid [(R)-1-(2-chloro-4-fluoro-phenyl)-propyl]-amide]	270
CC[C@@H](NC(=O)c1cc(C(=O)N2CCC[C@H]2C)c2n1CCOC2)c1ccccc1 [16kj, 8-((R)-2-Methyl-pyrrolidine-1-carbonyl)-3,4-dihydro-1H-pyrrolo[2,1-c][1,4]oxazine-6-carboxylic acid ((R)-1-phenyl-propyl)-amide]	270
CC[C@@H](NC(=O)c1cc(C(=O)N2CCC[C@@H]2C)n2c1COCC2)c1cnc(Cl)c(Cl)c1 [16co, 6-((S)-2-Methyl-pyrrolidine-1-carbonyl)-3,4-dihydro-1H-pyrrolo[2,1-c][1,4]oxazine-8-carboxylic acid [(R)-1-(5,6-dichloro-pyridin-3-yl)-propyl]-amide]	140
CC[C@@H](NC(=O)c1cc(C(=O)N2CC[C@@H](OC)C2)n2c1CCCC2)c1ccccc1 [16mg, 3-((R)-3-Methoxy-pyrrolidine-1-carbonyl)-5,6,7,8-tetrahydro-indolizine-1-carboxylic acid ((R)-1-phenyl-propyl)-amide]	840
CC[C@@H](NC(=O)c1cc(C(=O)N2CCC[C@@H]2C)n2c1COCC2)c1cccc(C(F)(F)F)n1 [16ap]	76
CC[C@@H](NC(=O)c1cc(C(=O)N2CCC[C@@H]2CNC(C)=O)n2c1COCC2)c1ccccc1 [16fh, 6-[(R)-2-(Acetylamino-methyl)-pyrrolidine-1-carbonyl]-3,4-dihydro-1H-pyrrolo[2,1-c][1,4]oxazine-8-carboxylic acid ((R)-1-phenyl-propyl)-amide]	5200
CC[C@@H](NC(=O)c1cc(C(=O)NC(C)c2ncccn2)n2c1COCC2)c1ccccc1 (stereo partly drawn) [16hd, 3,4-Dihydro-1H-pyrrolo[2,1-c][1,4]oxazine-6,8-dicarboxyli cacid 8-[((R)-1-phenyl-propyl)-amide] 6-[(1-pyrimidin-2-yl-ethyl)-amide]]	560
CC[C@@H](NC(=O)c1cc(C(=O)NC(C)C)n2c1COCC2)c1ccccc1 [16ge, 3,4-Dihydro-1H-pyrrolo[2,1-c][1,4]oxazine-6,8-dicarboxylic acid 6-isopropylamide 8-[((R)-1-phenyl-propyl)-amide]]	690
CC[C@@H](NC(=O)c1c(Br)c(C(=O)N2CCC[C@@H]2C)n2c1COCC2)c1ccc(C(F)(F)F)nc1 [16ru, 7-Bromo-6-((S)-2-methyl-pyrrolidine-1-carbonyl)-3,4-dihydro-1H-pyrrolo[2,1-c][1,4]oxazine-8-carboxylic acid [(R)-1-(6-trifluoromethyl-pyridin-3-yl)-propyl]-amide]	820
CC[C@H](NC(=O)c1cc(C(=O)N[C@H](CC)c2ccccc2)c2n1CCCC2)c1ccccc1 [16mb, 5,6,7,8-Tetrahydro-indolizine-1,3-dicarboxylic acid 3-[((S)-1-phenyl-propyl)-amide] 1-[((R)-1-phenyl-propyl)-amide]]	13
CC[C@@H](NC(=O)c1cc(C(=O)N2CCC[C@@H]2C(O)C2CC2)n2c1COCC2)c1ccccc1 (stereo partly drawn) [16et, 6-[(R)-2-(Cyclopropyl-hydroxy-methyl)-pyrrolidine-1-carbonyl]-3,4-dihydro-1H-pyrrolo[2,1-c][1,4]oxazine-8-carboxylic acid ((R)-1-phenyl-propyl)-amide]	1300
CC[C@@H](NC(=O)c1cc(C(=O)NC2CC2)n2c1COCC2)c1ccccc1 [16gi, 3,4-Dihydro-1H-pyrrolo[2,1-c][1,4]oxazine-6,8-dicarboxylic acid 6-cyclopropylamide 8-[((R)-1-phenyl-propyl)-amide]]	1300
CC[C@@H](NC(=O)c1cc(C(=O)N2CCC[C@@H]2C)n2c1COCC2)c1ccc(C(F)F)cc1 [16au, 6-((S)-2-Methyl-pyrrolidine-1-carbonyl)-3,4-dihydro-1H-pyrrolo[2,1-c][1,4]oxazine-8-carboxylic acid [(R)-1-(4-difluoromethyl-phenyl)-propyl]-amide]	340
CC[C@@H](NC(=O)c1cc(C(=O)N2CCC[C@@H]2C)n2c1COCC2)c1c(F)cc(C(F)(F)F)cc1F [16cl, 6-((S)-2-Methyl-pyrrolidine-1-carbonyl)-3,4-dihydro-1H-pyrrolo[2,1-c][1,4]oxazine-8-carboxylic acid [(R)-1-(2,6-difluoro-4-trifluoromethyl-phenyl)-propyl]-amide]	50
CC[C@@H](NC(=O)c1cc(C(=O)N[C@@H](C)C(=O)OC(C)C)n2c1COCC2)c1ccccc1 [16it, (S)-2-{[8-((R)-1-Phenyl-propylcarbamoyl)-3,4-dihydro-1H-pyrrolo[2,1-c][1,4]oxazine-6-carbonyl]-amino}-propionic acid isopropyl ester]	130
CC[C@@H](NC(=O)c1cc(C(=O)N[C@H](CC)c2ccc(C#N)nc2)n2c1COCC2)c1ccccc1 [16ib, 3,4-Dihydro-1H-pyrrolo[2,1-c][1,4]oxazine-6,8-dicarboxylic acid 6-{[(R)-1-(6-cyano-pyridin-3-yl)-propyl]-amide} 8-[((R)-1-phenyl-propyl)-amide]]	1000
CC[C@H](NC(=O)c1cc(C(=O)N[C@H](C)c2ccc(F)cc2)c2n1CCOC2)c1ccccc1 [16jp, 3,4-Dihydro-1H-pyrrolo[2,1-c][1,4]oxazine-6,8-dicarboxylic acid 8-{[(R)-1-(4-fluoro-phenyl)-ethyl]-amide} 6-[((S)-1-phenyl-propyl)-amide]]	220
CC[C@@H](NC(=O)c1cc(C(=O)N[C@H](C)c2ccc(F)cc2)n2c1COCC2)c1ncccn1 [16dz, 3,4-Dihydro-1H-pyrrolo[2,1-c][1,4]oxazine-6,8-dicarboxylic acid 6-{[(R)-1-(4-fluoro-phenyl)-ethyl]-amide} 8-[((R)-1-pyrimidin-2-yl-propyl)-amide]]	220
CC[C@@H](NC(=O)c1cc(C(=O)N2CCCC2CN2CCOCC2)n2c1COCC2)c1ccccc1 (stereo partly drawn) [16fr, 6-(2-Morpholin-4-ylmethyl-pyrrolidine-1-carbonyl)-3,4-dihydro-1H-pyrrolo[2,1-c][1,4]oxazine-8-carboxylic acid ((R)-1-phenyl-propyl)-amide]	1300
CC[C@@H](NC(=O)c1cc(C(=O)N2CCCC2C(C)C)n2c1COCC2)c1ccccc1 (stereo partly drawn) [16el, 6-(2-Isopropyl-pyrrolidine-1-carbonyl)-3,4-dihydro-1H-pyrrolo[2,1-c][1,4]oxazine-8-carboxylic acid ((R)-1-phenyl-propyl)-amide]	380
CC[C@@H](NC(=O)c1cc(C(=O)NCC2(O)CC2)n2c1COCC2)c1ccccc1 [16hi, 3,4-Dihydro-1H-pyrrolo[2,1-c][1,4]oxazine-6,8-dicarboxylic acid 6-[(1-hydroxy-cyclopropylmethyl)-amide] 8-[((R)-1-phenyl-propyl)-amide]]	1100
C[C@@H](NC(=O)c1cc(C(=O)N[C@H](C)c2ncccn2)c2n1CCOC2)c1ccc(F)cc1 (racemic) [16dy, 3,4-Dihydro-1H-pyrrolo[2,1-c][1,4]oxazine-6,8-dicarboxylic acid 6-{[(R)-1-(4-fluoro-phenyl)-ethyl]-amide} 8-[((R)-1-pyrimidin-2-yl-ethyl)-amide]]	1500
CC(C)[C@@H](NC(=O)c1cc(C(=O)NCc2cnccn2)c2n1CCOC2)c1ccc(F)cc1 [16lo, 3,4-Dihydro-1H-pyrrolo[2,1-c][1,4]oxazine-6,8-dicarboxylic acid 6-{[(R)-1-(4-fluoro-phenyl)-2-methyl-propyl]-amide} 8-[(pyrazin-2-ylmethyl)-amide]]	420
CC[C@@H](NC(=O)c1cc(C(=O)N[C@H](C)c2ccc(OC)cc2)n2c1CCCC2)c1ccccc1 [16mt, 5,6,7,8-Tetrahydro-indolizine-1,3-dicarboxylic acid 3-{[(R)-1-(4-methoxy-phenyl)-ethyl]-amide} 1-[((R)-1-phenyl-propyl)-amide]]	320
CC[C@@H](NC(=O)c1cc(C(=O)N2CCC[C@@H]2C)n2c1COCC2)c1ccc(C#N)c(Cl)c1 [16d, 6-((S)-2-Methyl-pyrrolidine-1-carbonyl)-3,4-dihydro-1H-pyrrolo[2,1-c][1,4]oxazine-8-carboxylic acid [(R)-1-(3-chloro-4-cyano-phenyl)-propyl]-amide]	240
CC[C@@H](NC(=O)c1cc(C(=O)N2CCC[C@@H]2C)n2c1COC(C)(C)C2)c1ccc(C#N)cc1 [16nx, 3,3-Dimethyl-6-((S)-2-methyl-pyrrolidine-1-carbonyl)-3,4-dihydro-1H-pyrrolo[2,1-c][1,4]oxazine-8-carboxylic acid [(R)-1-(4-cyano-phenyl)-propyl]-amide]	370
